Holding throughout (assay): Antimicrobial activity, MIC (Test Example 1)
Assay type in all cases: cell-based

For test [1], the system named is M. catarrhalis W-500. The settings on record: Moraxella catarrhalis, W500, Sensitivity Disk agar-N+5% Horse blood, inoculants 10^6 CFU/ml, read-out: minimum inhibitory concentrations (MIC). The protocol:
(§1) The minimum inhibitory concentrations (MIC, μg/ml) of representative compounds, among the novel carbapenem derivatives of the present invention, to various pathogenic bacteria were measured in accordance with the method described in CHEMOTHERAPY, vol. 16, No. 1, 99, 1968. The culture medium for the measurement is Sensitivity Disk agar-N+5% Horse blood, and the amount of inoculants used is 10^6 CFU/ml.

Test [2] deals with E. coli W4680. The following applies: Sensitivity Disk agar-N+5% Horse blood, inoculants 10^6 CFU/ml; for MIC: Escherichia coli, read-out: minimum inhibitory concentrations (MIC). As for the experimental part:
as §1

Test [3] deals with S. aureus 209P JC-1. The settings on record: Sensitivity Disk agar-N+5% Horse blood, inoculants 10^6 CFU/ml; for MIC: Staphylococcus aureus, read-out: minimum inhibitory concentrations (MIC). The protocol:
as §1

The test system of test [4] is S. pneumoniae PRC53. The settings on record: Sensitivity Disk agar-N+5% Horse blood, inoculants 10^6 CFU/ml; for MIC: Streptococcus pneumoniae, read-out: minimum inhibitory concentrations (MIC). As for the experimental part: as §1
The test system of test [5] is K. pneumoniae GN69. The settings on record: Sensitivity Disk agar-N+5% Horse blood, inoculants 10^6 CFU/ml; for MIC: Klebsiella pneumoniae, read-out: minimum inhibitory concentrations (MIC). As for the experimental part:
as §1

In test [6] the test system is H. influenzae Rd. The following applies: Sensitivity Disk agar-N+5% Horse blood, inoculants 10^6 CFU/ml; for MIC: Haemophilus influenzae, read-out: minimum inhibitory concentrations (MIC). The protocol:
as §1

The subject of test [7] is S. pneumoniae R6. The following applies: Sensitivity Disk agar-N+5% Horse blood, inoculants 10^6 CFU/ml; for MIC: Streptococcus pneumoniae, read-out: minimum inhibitory concentrations (MIC). The protocol: as §1
Test [8] relates to H. influenzae 870. The following applies: Sensitivity Disk agar-N+5% Horse blood, inoculants 10^6 CFU/ml; for MIC: Haemophilus influenzae, read-out: minimum inhibitory concentrations (MIC). As for the experimental part: as §1
Test [9] relates to S. pneumoniae 197. The following applies: Streptococcus pneumoniae, Sensitivity Disk agar-N+5% Horse blood, inoculants 10^6 CFU/ml, read-out: minimum inhibitory concentrations (MIC). As for the experimental part: as §1
In test [10] the test system is H. influenzae PRC44. The following applies: Sensitivity Disk agar-N+5% Horse blood, inoculants 10^6 CFU/ml; for MIC: Haemophilus influenzae, read-out: minimum inhibitory concentrations (MIC). As for the experimental part: as §1

SMILES strings stand for the structures. Converted amounts (≈) assume the structure as drawn.

Experimental findings from patent US7687490B2, “2-thioethenyl substituted carbapenem derivatives” (Meiji Seika Kaisha, Ltd., priority 2005, dated 2010) are described below.

Regarding `C[C@@H](O)[C@H]1C(=O)N2C(C(=O)[O-])=C(S/C=C\c3ncsc3CO)[C@H](C)[C@H]12.[Na+]` [Example 78, Sodium (1R,5S,6S)-6-((1R)-1-hydroxyethyl)-2-[[(Z)-2-(5-hydroxymethylthiazol-4-yl)ethen-1-yl]thio]-1-methyl-1-carbapen-2-em-3-carboxylate], the MIC in test [1] is 0.25 µg/mL; in [2], 8 µg/mL; in [3] it was 0.031 µg/mL; in test [4] it was 0.063 µg/mL; in test [5], 8 µg/mL; in test [6], 0.031 µg/mL. Further, the MIC in test [7] amounted to 0.008 µg/mL; in test [8], 0.125 µg/mL; in [9] it was 0.25 µg/mL; in [10], 0.063 µg/mL.
`C[C@@H](O)[C@H]1C(=O)N2C(C(=O)[O-])=C(S/C=C\c3scnc3C(=O)N(C)C)[C@H](C)[C@H]12.[Na+]` [Example 43, Sodium (1R,5S,6S)-2-[[(Z)-2-(4-N,N-dimethylcarbamoylthiazol-5-yl)ethen-1-yl]thio]-6-((1R)-1-hydroxyethyl)-1-methyl-1-carbapen-2-em-3-carboxylate]: the “minimum inhibitory concentrations (MIC)” value in test [2] worked out at 4 µg/mL; in test [3], 0.063 µg/mL; in test [4], 0.063 µg/mL; in test [5], 4 µg/mL; in test [6], 0.031 µg/mL; in test [7], 0.008 µg/mL. The entries for the “minimum inhibitory concentrations (MIC)” value in test [8] and in test [10] were 0.25 µg/mL and 0.125 µg/mL, respectively.
`C[C@@H](O)[C@H]1C(=O)N2C(C(=O)[O-])=C(S/C=C\c3scnc3CO)[C@H](C)[C@H]12.[Na+]` [Example 41, Sodium (1R,5S,6S)-6-((1R)-1-hydroxyethyl)-2-[[(Z)-2-(4-hydroxymethylthiazol-5-yl)ethen-1-yl]thio]-1-methyl-1-carbapen-2-em-3-carboxylate]: the MIC turned out to be 0.063 µg/mL in test [1]; 1 µg/mL in [2]; 0.031 µg/mL in [3]; 0.063 µg/mL in test [4]; 0.5 µg/mL in test [5]; 0.031 µg/mL in [6]. For the same molecule, the MIC was found to be 0.008 µg/mL in [7], 0.125 µg/mL in [8], 0.125 µg/mL in test [9] and 0.125 µg/mL in test [10].
As for `C[C@@H](O)[C@H]1C(=O)N2C(C(=O)O)=C(SCCN=CN)C[C@H]12` [IPM, imipenem, reference compound], the MIC in [1] was 0.063 µg/mL (≈ 0.21 µM); in test [2] it was 0.125 µg/mL (≈ 0.418 µM); in test [3], 0.016 µg/mL (≈ 0.0534 µM); in [4] it was 0.125 µg/mL (≈ 0.418 µM); in test [5], 0.125 µg/mL (≈ 0.418 µM); in test [6], 1 µg/mL (≈ 3.34 µM). In addition, the MIC in test [7] came out at 0.008 µg/mL (≈ 0.0267 µM); in test [8] it was 4 µg/mL (≈ 13.4 µM); in test [9] it was 1 µg/mL (≈ 3.34 µM); in [10] it was 16 µg/mL (≈ 53.4 µM).
As for `C[C@@H](O)[C@H]1C(=O)N2C(C(=O)[O-])=C(S/C=C\c3nc(CO)cs3)[C@H](C)[C@H]12.[Na+]` [Example 44, Sodium (1R,5S,6S)-6-((1R)-1-hydroxyethyl)-2-[[(Z)-2-(4-hydroxymethylthiazol-2-yl)ethen-1-yl]thio]-1-methyl-1-carbapen-2-em-3-carboxylate], the MIC in test [1] stood at 0.063 µg/mL; in test [2], 4 µg/mL; in [3] it was 0.031 µg/mL; in test [4], 0.063 µg/mL; in [5] it was 4 µg/mL; in test [6] it was 0.031 µg/mL. Moreover, the MIC in [7] was found to be 0.008 µg/mL; in [8] it was 0.125 µg/mL; in [9], 0.25 µg/mL; in test [10], 0.063 µg/mL.
Take `C[C@@H](O)[C@H]1C(=O)N2C(C(=O)[O-])=C(S/C=C/c3scnc3CO)[C@H](C)[C@H]12.[Na+]` [Example 61, Sodium (1R,5S,6S)-6-((1R)-1-hydroxyethyl)-2-[[(E)-2-(4-hydroxymethylthiazol-5-yl)ethen-1-yl]thio]-1-methyl-1-carbapen-2-em-3-carboxylate]: the MIC in test [1] came out at 0.063 µg/mL; in test [2], 8 µg/mL; in [3], 0.063 µg/mL; in test [4], 0.25 µg/mL; in test [5], 8 µg/mL; in test [6] it was 0.031 µg/mL. Moreover, the MIC is 0.031 µg/mL in [7], 0.125 µg/mL in test [8], 1 µg/mL in test [9] and 0.125 µg/mL in [10].
